# Data published in US5538993A, “Certain tetrahydrocannabinol-7-oic acid derivatives” (priority 1991, dated 1996).
# Assays:
# [1] = system: peritoneal leukocytes; assay: Leukocyte adhesion assay (peritoneal cells after oral dosing); type: in vivo, female CD-1 mice; conditions: cells collected 90 min after dosing; for number of adhering cells: ± S.D
# Protocol: Leukocytes are thought to be major contributors to the inflammatory response and their ability in this regard is reflected by their adhesiveness to a variety of substrates [Audette, C. A., et al., ibid.] Sci., 47, 753 (1990)].
# The details of the leukocytes adhesion assay have been previously reported [Audette et al., ibid.]. In brief, peritoneal cells from female CD-1 mice (20-25 g) were collected at 90 min following oral administration of the drug or vehicle (50 μl peanut oil). Cells from each treatment group (N=3) were pooled and equal numbers aliquoted into six culture dish wells (1.9 cm^2 area). After incubation for 18-20 hours, non-adhering cells were removed and the remaining cell monolayer quantitated by DNA measurement.
# [2] = system: mouse hot plate test; assay: Hot plate test for antinociception (55° C.); type: in vivo; conditions: 0.02 mg/kg oral, 90 min before test
# Protocol: In the hot plate test for analgesia an aluminum surface was maintained at 55±1° C. by circulating water through passages in the metal. A clear plastic cylinder 18 cm in diameter and 26 cm high was placed on the surface to prevent escape. The end point was taken when the mouse either performed a hind paw lick or jumped off the surface; in no case were the animals kept for more than 30 secs on the plate. Mice were never used more than one time; control values were always measured at 11 a.m. and test values at 2 p.m. The drugs were administered orally 90 min before the hot plate test. The percent change in response time (latency) was calculated by comparing the mean of the control values with the mean of the test values and statistical signficance determined by a paired tetest analysis using software (Statview, 512) from Brainpower, Inc., Calabasas, Calif.
# [3] = system: cataleptic response; assay: Cataleptic effects, ring test; type: in vivo, mouse; conditions: 5 min test period, ± SD
# Protocol: The lack of CNS activity for the compounds described herein may be seen from the data shown in Table V. This was measured by the so-called "ring test" [Pertwee, R. G., et al., J. Pharmacol., 46, 753 (1972)] in which the cataleptic effects of cannabinoids can be quantitated. The compounds produced little or no response when compared with the parent drug.
# The cataleptic response was measured using the ring test. Mice were placed on a horizontal wire ring 5.5 cm in diameter, which was attached to a 16 cm vertical rod. The hind paws and fore paws were placed at opposite sides of the ring. It is important that the ambient temperature is maintained at 30° C. and that the environment be free of auditory stimuli and bright lights. The criteria for immobility are detailed by Pertwee. The response is calculated as the fraction of time the mouse is immobile over a 5 min. test period. Measurements were always done between 2 and 4 p.m. and the animals were used only once.
# [4] = system: Picrotoxin induced lethality; assay: Protection against picrotoxin induced lethality; type: in vivo, Balb/c male mice; conditions: mice; result in words
# Protocol: (§1) The present compounds are active in several tests generally used to indicate neuroprotection.
# (§2) Balb/c male mice were administered with the drug 90 min before treatment with NMDA (125 mq/kg) or 120 min before picrotoxin (8 mg/kg) in emulsion, s.c. The survival rate shown in Table VI indicates number of survivors out of total number of animals used.
# [5] = system: N-methyl-D-aspartate (NMDA) induced lethality; assay: Protection against NMDA induced lethality; type: in vivo, Balb/c male mice; conditions: mice; result in words
# Protocol: as §1, §2
# [6] = system: strychnine induced lethality; assay: Protection against strychnine induced lethality; type: in vivo; conditions: rats; result in words
# Text: as §1
# [7] = system: forebrain ischemia; assay: Protection against forebrain ischemia (unilateral occlusion); type: in vivo; conditions: mongolian gerbils, result in words
# Text: as §1
# [8] = system: intraocular pressure; assay: Reduction of intraocular pressure (anti-glaucoma); type: in vivo, rabbits; conditions: 50 μl drop of a 1% emulsion into rabbit eye
# Protocol: Reduction of intraocular pressure in rabbits was determined by the addition of a 50 μl drop of a 1% emulsion of the cannabinoid into the rabbit eye. This test is a measure of anti-glaucoma activity.
# [9] = system: NMDA receptor; assay: NMDA-blocking response in Xenopus oocytes injected with rat brain RNA; type: cell-based; conditions: upon return to ND 96 solution
# Text: The oocyte is the most widely used system for studying the molecular, biophysical. and pharmacological properties of expressed voltage- or transmitter-operated ion channels. This giant cell offers several advantages for this type of studies. It can be readily used for two-electrode voltage clamp studies, translates injected mRNA from different sources and functionally expresses the translated proteins, and it is also readily amenable for intracellular microinjections. Importantly, the recordings of transmitter or voltage-induced currents in a single oocyte are extremely stable and can be done, without rundown, for 2-3 hours; this allows the performance of a full dose-response relation in single oocytes.
# Neuronal receptors for excitatory amino acid (EAA) are becoming increasingly important for the understanding of normal and pathological brain function. Quantitative pharmacological studies of EAA receptor/ion channel. complex are difficult to study in neurons. Therefore, Xenopus oocyte injected with brain MRNA is now the preparation of choice.
# The response to N-methyl-D-aspartate (NMDA) in oocytes injected with rat brain mRNA was characterized and the effects of HU-245 were studied.
# Female Xenopus were anesthetized by immersion in water containing 0.15% tricaine methanesulfonate and a small incision was made in the lower abdomen. Ovary fragments were removed into ND-96. […]
# [10] = Solubility; type: physicochemical; conditions: result in words
structure (smiles),measurement,setting,value
"CCCCCCC(C)(C)c1cc(OC(C)=O)c2c(c1)OC(C)(C)[C@H]1CC=C(C(=O)O)C[C@H]21 [HU-245, (3S, 4S) -THC-DMH-7-oic acid, acetate]","adhering cells, percent of control",[1]; 0.10 mg/kg oral,124% of control
same,number of adhering cells,[1]; 0.10 mg/kg oral,0.66 ± 0.08 number of adhering cells × 10^-6
same,number of adhering cells,[1]; 0.50 mg/kg oral,0.85 ± 0.08 number of adhering cells × 10^-6
same,number of adhering cells,[1]; 1.00 mg/kg oral,0.30 ± 0.04 number of adhering cells × 10^-6
same,percent change in latency,[2],10.7%
same,cataleptic response (fraction of time immobile),[3]; 0.5 mg/kg,6.8 ± 2.4
same,cataleptic response (fraction of time immobile),[3]; 1.0 mg/kg,12.0 ± 6.0
same,blocking of picrotoxin induced lethality,[4],blocker
same,blocking of NMDA induced lethality,[5],blocker
same,protection against strychnine induced lethality,[6],protects against strychnine induced lethality
same,protection against forebrain ischemia,[7],shown to protect against forebrain ischemia
same,reduction of intraocular pressure,[8],Significant reduction
same,reversibility of effect on NMDA response,[9],reversible
same,solubility compared with prior art compounds,[10],higher than that of prior art compounds
